“And” between values parts separate entries of the source, which are not always exact repeats. Equal values may be shown once.
Assays:
hMAGL = target: T1, hMAGL (Homo sapiens, UniProt Q99685); assay: Hydrolase activity assay, hMAGL-HEK lysates; type: biochemical
T1 construct: expressed in transfected cells; host or cells: HEK
T1 sequence (Q99685 1-303): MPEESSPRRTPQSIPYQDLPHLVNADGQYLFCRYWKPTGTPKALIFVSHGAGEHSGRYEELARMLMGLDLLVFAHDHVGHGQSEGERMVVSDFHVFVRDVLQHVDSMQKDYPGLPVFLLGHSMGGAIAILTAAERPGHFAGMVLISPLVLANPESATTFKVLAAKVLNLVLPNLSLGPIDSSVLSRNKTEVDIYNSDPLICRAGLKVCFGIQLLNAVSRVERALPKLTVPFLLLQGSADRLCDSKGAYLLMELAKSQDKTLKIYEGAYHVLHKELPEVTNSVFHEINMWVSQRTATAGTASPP

hABHD6 = target: T2, hABHD6 (Homo sapiens, UniProt Q9BV23); assay: Hydrolase activity assay, hABHD6-HEK lysates; type: biochemical; details: hABHD6-HEK lysates; read-out: IC50
T2 construct: expressed in transfected cells; host or cells: HEK293
T2 sequence (Q9BV23 1-337): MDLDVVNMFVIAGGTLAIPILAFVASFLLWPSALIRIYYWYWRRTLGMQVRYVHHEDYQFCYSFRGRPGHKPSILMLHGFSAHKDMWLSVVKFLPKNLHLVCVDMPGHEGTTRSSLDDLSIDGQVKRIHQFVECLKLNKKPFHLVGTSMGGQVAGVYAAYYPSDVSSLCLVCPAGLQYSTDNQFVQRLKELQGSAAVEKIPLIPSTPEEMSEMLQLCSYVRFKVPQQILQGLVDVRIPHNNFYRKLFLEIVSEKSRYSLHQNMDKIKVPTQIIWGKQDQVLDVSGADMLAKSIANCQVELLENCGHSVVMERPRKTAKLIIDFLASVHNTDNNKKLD

hFAAH = target: T3, hFAAH (Homo sapiens, UniProt O00519); assay: FAAH activity assay, hFAAH-COS7 membranes (3H-anandamide); type: biochemical
T3 construct: expressed in transfected cells; host or cells: COS-7
T3 sequence (O00519 1-579): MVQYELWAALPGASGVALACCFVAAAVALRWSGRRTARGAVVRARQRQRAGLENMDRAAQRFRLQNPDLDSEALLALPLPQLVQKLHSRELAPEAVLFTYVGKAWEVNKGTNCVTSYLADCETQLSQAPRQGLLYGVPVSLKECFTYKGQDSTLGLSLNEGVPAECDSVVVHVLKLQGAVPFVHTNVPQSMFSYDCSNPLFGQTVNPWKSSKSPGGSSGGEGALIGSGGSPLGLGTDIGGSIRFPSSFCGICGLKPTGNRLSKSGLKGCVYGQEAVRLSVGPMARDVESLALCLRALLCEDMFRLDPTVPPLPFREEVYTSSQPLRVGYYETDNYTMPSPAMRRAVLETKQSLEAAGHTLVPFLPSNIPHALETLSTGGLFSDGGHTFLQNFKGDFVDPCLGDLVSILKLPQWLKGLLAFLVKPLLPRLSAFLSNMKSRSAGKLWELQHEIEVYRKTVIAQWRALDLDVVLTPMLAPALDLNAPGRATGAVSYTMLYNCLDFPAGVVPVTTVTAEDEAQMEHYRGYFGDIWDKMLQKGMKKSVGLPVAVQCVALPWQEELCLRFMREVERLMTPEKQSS

hBAT5 = target: T4, hBAT5 (Homo sapiens, UniProt O95870); assay: Inhibition of 1-LG hydrolysis in hBAT5-HEK293 lysates (fluorescent glycerol assay); type: biochemical; set-up: host or cells: HEK293
T4 sequence (O95870 1-558): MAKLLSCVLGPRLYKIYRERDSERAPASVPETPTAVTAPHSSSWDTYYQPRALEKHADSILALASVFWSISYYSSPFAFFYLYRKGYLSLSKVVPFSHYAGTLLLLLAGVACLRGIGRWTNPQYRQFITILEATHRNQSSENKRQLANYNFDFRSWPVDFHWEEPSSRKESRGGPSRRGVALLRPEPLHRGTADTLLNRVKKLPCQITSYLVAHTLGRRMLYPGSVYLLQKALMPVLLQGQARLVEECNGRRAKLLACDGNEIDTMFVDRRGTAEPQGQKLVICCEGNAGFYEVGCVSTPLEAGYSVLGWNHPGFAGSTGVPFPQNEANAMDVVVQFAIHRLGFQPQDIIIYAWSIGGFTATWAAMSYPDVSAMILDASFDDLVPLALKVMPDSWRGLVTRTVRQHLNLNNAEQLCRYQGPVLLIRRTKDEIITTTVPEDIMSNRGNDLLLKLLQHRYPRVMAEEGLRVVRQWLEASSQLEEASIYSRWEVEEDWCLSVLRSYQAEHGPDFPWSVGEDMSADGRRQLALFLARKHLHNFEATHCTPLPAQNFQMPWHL

hABHD12 = target: T5, hABHD12 (Homo sapiens, UniProt Q8N2K0); assay: Hydrolase activity assay, hABHD12-HEK lysates; type: biochemical
T5 construct: expressed in transfected cells; host or cells: HEK293
T5 sequence (Q8N2K0 1-398): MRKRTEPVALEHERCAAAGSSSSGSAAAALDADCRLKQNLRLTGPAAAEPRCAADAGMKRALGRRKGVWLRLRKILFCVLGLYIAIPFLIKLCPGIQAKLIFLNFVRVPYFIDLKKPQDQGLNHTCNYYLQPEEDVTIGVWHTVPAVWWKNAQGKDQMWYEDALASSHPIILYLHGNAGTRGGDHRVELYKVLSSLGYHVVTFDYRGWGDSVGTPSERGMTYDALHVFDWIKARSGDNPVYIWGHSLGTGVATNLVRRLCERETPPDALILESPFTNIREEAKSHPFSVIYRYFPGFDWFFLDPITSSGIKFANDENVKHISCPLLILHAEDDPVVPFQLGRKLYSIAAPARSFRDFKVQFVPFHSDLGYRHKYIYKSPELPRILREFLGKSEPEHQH

mBAT5 = target: T6, mBAT5 (Mus musculus, UniProt Q9Z1Q2); assay: Competitive ABPP (TAMRA-FP) with mBAT5-HEK293 lysates; details: 1 h pretreatment
T6 sequence (Q9Z1Q2 1-558): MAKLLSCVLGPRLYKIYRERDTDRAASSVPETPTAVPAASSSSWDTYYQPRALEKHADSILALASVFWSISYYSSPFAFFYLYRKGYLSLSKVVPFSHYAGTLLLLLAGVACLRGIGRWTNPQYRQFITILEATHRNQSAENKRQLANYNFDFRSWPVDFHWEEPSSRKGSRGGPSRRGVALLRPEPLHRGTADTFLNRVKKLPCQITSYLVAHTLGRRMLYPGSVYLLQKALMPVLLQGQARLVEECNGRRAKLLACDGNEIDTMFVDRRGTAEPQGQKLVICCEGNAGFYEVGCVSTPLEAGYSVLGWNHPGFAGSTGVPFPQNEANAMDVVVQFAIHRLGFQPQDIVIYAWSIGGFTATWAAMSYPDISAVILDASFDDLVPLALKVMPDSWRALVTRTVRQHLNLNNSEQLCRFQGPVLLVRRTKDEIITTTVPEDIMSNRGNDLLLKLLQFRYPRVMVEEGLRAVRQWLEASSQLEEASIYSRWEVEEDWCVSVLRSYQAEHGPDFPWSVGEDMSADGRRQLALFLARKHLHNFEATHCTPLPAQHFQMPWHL
Procedure: Inhibitor dose–response curves and IC50 values derived thereof were calculated from non-linear regressions using GraphPad Prism 5.0 for Windows. The logIC50 values are means ± SEM from three independent experiments. […] The data are derived from three separate ABPP experiments.

[1] = at 10^−5 M, read-out: Remaining activity

sensitivity of hMAGL (in words) (hMAGL): resistant
remaining activity at 10 µM (hMAGL; [1]): 106%
IC50 (hABHD6): ~3.2 µM and 3.2 µM
sensitivity of hFAAH (in words) (hFAAH): resistant
remaining activity at 10 µM (hFAAH; [1]): 79.2%
hBAT5 inhibitory activity (in words) (hBAT5; 1-LG hydrolysis): inactive
remaining activity at 10 µM (hBAT5; at 10^-5 M, 1-LG 25 µM): 102.6 ± 1%
sensitivity of hABHD12 (in words) (hABHD12): resistant
remaining activity at 10 µM (hABHD12; [1]): 103%
inhibition of probe binding to mBAT5 (in words) (mBAT5): inactive
Compound: CC(=C\C(=O)O)/C=C(\C)C[C@H](C)CCCC[C@H]1OC(=O)[C@@H]1CO [Hymeglusin, hymeglusin]
